The test deals with T1, Bcl-2 protein (Recombinant Human Bcl-2 Protein) (Homo sapiens, UniProt P10415).
T1 construct: purchased Novus Biologicals NBP2-34889
Description: AS-MS evaluation of binding of the Example 4 mixture library (1200 compounds/well) to Bcl-2, ASMS ratio (%). As to conditions: mixture library, value belongs to the MS peak assigned to the compound; for ASMS ratio (%) n = 1: replicate n = 1; for ASMS ratio (%) n = 2: replicate n = 2. The essentials:
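Affinity-selection MS: after spin-column size exclusion and organic extraction, LC/MS signals give an ASMS ratio (%), referenced to protein-free samples with and without column treatment. Binding step combined 20 μM human Bcl-2 with the 1200-compound pool at 20 nM per compound, 1 h, 23° C., dark, pH 7.4 Tris-HCl/NaCl/Tween-20/DTT.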

Structures are written as SMILES.

T1 sequence (P10415 whole entry): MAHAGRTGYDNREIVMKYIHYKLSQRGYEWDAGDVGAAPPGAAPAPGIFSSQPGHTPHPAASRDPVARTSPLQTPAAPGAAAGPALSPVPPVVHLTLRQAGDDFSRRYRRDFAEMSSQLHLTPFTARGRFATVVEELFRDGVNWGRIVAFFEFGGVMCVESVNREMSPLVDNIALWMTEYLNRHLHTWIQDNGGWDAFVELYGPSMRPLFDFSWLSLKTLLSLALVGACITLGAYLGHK

`CCOc1cncc(-c2ccc(CN3CCN(c4ccc(C(=O)NS(=O)(=O)C(C)(C)C)cc4)CC3)c(OC)c2)c1` [Compound B2L054-01]: the “ASMS ratio (%) n = 1” value was found to be 0.0% and the “ASMS ratio (%) n = 2” value was determined as 0.0%.
As for `CCOc1cccc(-c2cc(CN3CCN(c4ccc(C(=O)NS(=O)(=O)C(C)(C)C)cc4)CC3)cc(OCC)c2)c1` [Compound B2L055-01, N-tert-Butylsulfonyl-4-[4-[[3-ethoxy-5-(3-ethoxyphenyl)phenyl]methyl]piperazin-1-yl]benzamide], the “ASMS ratio (%) n = 1” value came to 0.0% and the “ASMS ratio (%) n = 2” value was found to be 0.0%.
For the compound `CCOc1cncc(-c2cc(CN3CCN(c4ccc(C(=O)NS(=O)(=O)C(C)(C)C)cc4)CC3)cc(OCC)c2)c1` [Compound B2L056-01], the “ASMS ratio (%) n = 1” value stood at 0.0% and the “ASMS ratio (%) n = 2” value is on record as 0.0%.
Consider `CCOc1cccc(-c2cc(CN3CCN(c4ccc(C(=O)NS(=O)(=O)C(C)(C)C)cc4)CC3)cc(OC(C)C)c2)c1` [Compound B2L057-01, N-tert-Butylsulfonyl-4-[4-[3-(3-ethoxyphenyl)-5-propan-2-yloxyphenylmethyl]piperazin-1-yl]benzamide], for which the “ASMS ratio (%) n = 1” value came to 0.0% and the “ASMS ratio (%) n = 2” value is reported as 0.0%.
Regarding `CCOc1cncc(-c2cc(CN3CCN(c4ccc(C(=O)NS(=O)(=O)C(C)(C)C)cc4)CC3)cc(OC(C)C)c2)c1` [Compound B2L058-01], the “ASMS ratio (%) n = 1” value turned out to be 0.0% and the “ASMS ratio (%) n = 2” value was found to be 0.0%.
Take `CCOc1cccc(-c2cc(OC)c(CN3CCN(c4ccc(C(=O)NS(=O)(=O)C(C)(C)C)cc4)CC3)c(OC)c2)c1` [Compound B2L059-01, N-tert-Butylsulfonyl-4-[4-[[4-(3-ethoxyphenyl)-2,6-dimethoxyphenyl]methyl]piperazin-1-yl]benzamide]: the “ASMS ratio (%) n = 1” value worked out at 0.0% and the “ASMS ratio (%) n = 2” value was 0.0%.
With `CCOc1cncc(-c2cc(OC)c(CN3CCN(c4ccc(C(=O)NS(=O)(=O)C(C)(C)C)cc4)CC3)c(OC)c2)c1` [Compound B2L060-01], the “ASMS ratio (%) n = 2” value is reported as 0.0%.
Take `CCOc1cccc(-c2cc(CN3CCN(c4ccc(C(=O)NS(=O)(=O)C(C)(C)C)cc4)CC3)cc(C(F)(F)F)c2)c1` [Compound B2L061-01, N-tert-Butylsulfonyl-4-[4-[[3-(3-ethoxyphenyl)-5-(trifluoromethyl)phenyl]methyl]piperazin-1-yl]benzamide]: the “ASMS ratio (%) n = 1” value turned out to be 4.6% and the “ASMS ratio (%) n = 2” value is recorded as −11.1%.
With `CCOc1cncc(-c2cc(CN3CCN(c4ccc(C(=O)NS(=O)(=O)C(C)(C)C)cc4)CC3)cc(C(F)(F)F)c2)c1` [Compound B2L062-01, N-tert-Butylsulfonyl-4-[4-[[3-(5-ethoxypyridin-3-yl)-5-(trifluoromethyl)phenyl]methyl]piperazin-1-yl]benzamide], the “ASMS ratio (%) n = 1” value is 0.0% and the “ASMS ratio (%) n = 2” value worked out at 0.0%.
Take `CCOc1cccc(-c2cc(CN3CCN(c4ccc(C(=O)NS(=O)(=O)C(C)(C)C)cc4)CC3)cc(OC(F)(F)F)c2)c1` [Compound B2L063-01, N-tert-Butylsulfonyl-4-[4-[[3-(3-ethoxyphenyl)-5-(trifluoromethoxy)phenyl]methyl]piperazin-1-yl]benzamide]: the “ASMS ratio (%) n = 1” value was found to be 0.0% and the “ASMS ratio (%) n = 2” value stood at 0.0%.
Consider `CCOc1cncc(-c2cc(CN3CCN(c4ccc(C(=O)NS(=O)(=O)C(C)(C)C)cc4)CC3)cc(OC(F)(F)F)c2)c1` [Compound B2L064-01], for which the “ASMS ratio (%) n = 1” value was found to be 0.0% and the “ASMS ratio (%) n = 2” value is listed as 0.0%.
Regarding `CCOc1cncc(-c2ccc(CN3CCN(c4ccc(C(=O)NS(=O)(=O)C(C)(C)C)cc4)CC3)c3ccccc23)c1` [Compound B2L066-01, N-tert-Butylsulfonyl-4-[4-[[4-(5-ethoxypyridin-3-yl)naphthalen-1-yl]methyl]piperazin-1-yl]benzamide], the “ASMS ratio (%) n = 1” value stood at 0.0% and the “ASMS ratio (%) n = 2” value stood at 0.0%.
`CCOc1cccc(-c2csc(CN3CCN(c4ccc(C(=O)NS(=O)(=O)C(C)(C)C)cc4)CC3)c2)c1` [Compound B2L067-01]: the “ASMS ratio (%) n = 1” value came out at 0.0% and the “ASMS ratio (%) n = 2” value was determined as 0.0%.
As to `CCOc1cncc(-c2csc(CN3CCN(c4ccc(C(=O)NS(=O)(=O)C(C)(C)C)cc4)CC3)c2)c1` [Compound B2L068-01], the “ASMS ratio (%) n = 1” value was 0.0% and the “ASMS ratio (%) n = 2” value amounted to 0.0%.
Consider `CCOc1cccc(C#Cc2ccccc2CN2CCN(c3ccc(C(=O)NS(=O)(=O)C(C)(C)C)cc3)CC2)c1` [Compound B2L069-01, N-tert-Butylsulfonyl-4-[4-[[2-[2-(3-ethoxyphenyl)ethynyl]phenyl]methyl]piperazin-1-yl]benzamide], for which the “ASMS ratio (%) n = 1” value is on record as 0.0% and the “ASMS ratio (%) n = 2” value is listed as 0.0%.
For the compound `CCOc1cncc(C#Cc2ccccc2CN2CCN(c3ccc(C(=O)NS(=O)(=O)C(C)(C)C)cc3)CC2)c1` [Compound B2L070-01], the “ASMS ratio (%) n = 1” value came out at 4.9% and the “ASMS ratio (%) n = 2” value is −4.2%.
With `CCOc1cccc(-c2ccccc2CN2CCN(c3ccc(C(=O)NS(=O)(=O)C(C)(C)C)nn3)CC2)c1` [Compound B2L071-01, N-tert-Butylsulfonyl-6-[4-[2-(3-ethoxyphenyl)phenyl]methyl]piperazin-1-yllpyridazine-3-carboxamide], the “ASMS ratio (%) n = 1” value was 1.2% and the “ASMS ratio (%) n = 2” value was found to be 0.0%.
The like results for `CCOc1cncc(-c2ccccc2CN2CCN(c3ccc(C(=O)NS(=O)(=O)C(C)(C)C)nn3)CC2)c1` [Compound B2L072-01, N-tert-Butylsulfonyl-6-[4-[[2-(5-ethoxypyridin-3-yl)phenyl]methyl]piperazin-1-yl]pyridazine-3-carboxamide] were, in that order, −10.7% and 8.3%.
The like results for `CCOc1cccc(-c2ccc(CN3CCN(c4ccc(C(=O)NS(=O)(=O)C(C)(C)C)nn4)CC3)cc2C)c1` [Compound B2L073-01] were, in that order, 0.0% and 0.0%.
As to `CCOc1cncc(-c2ccc(CN3CCN(c4ccc(C(=O)NS(=O)(=O)C(C)(C)C)nn4)CC3)cc2C)c1` [Compound B2L074-01], the “ASMS ratio (%) n = 1” value is given as −1.0% and the “ASMS ratio (%) n = 2” value is recorded as 1.4%.
The like results for `CCOc1cccc(-c2ccc(CN3CCN(c4ccc(C(=O)NS(=O)(=O)C(C)(C)C)nn4)CC3)c(CC)c2)c1` [Compound B2L075-01] were, in that order, 0.0% and 33.9%.
The corresponding values for `CCOc1cncc(-c2ccc(CN3CCN(c4ccc(C(=O)NS(=O)(=O)C(C)(C)C)nn4)CC3)c(CC)c2)c1` [Compound B2L076-01] are 1.8% and −0.3%.
For `CCOc1cccc(-c2ccc(CN3CCN(c4ccc(C(=O)NS(=O)(=O)C(C)(C)C)nn4)CC3)cc2F)c1` [Compound B2L077-01, N-tert-Butylsulfonyl-6-[4-[4-(3-ethoxyphenyl)-3-fluorophenyl]methyl]piperazin-1-yllpyridazine-3-carboxamide], the “ASMS ratio (%) n = 1” value was 0.0% and the “ASMS ratio (%) n = 2” value is reported as 0.0%.

These data come from patent US20250154686A1, “COMPOUND LIBRARY” (CHUGAI SEIYAKU KABUSHIKI KAISHA, priority 2021, published 2025).
